Test results as given in patent publication US12590062B2, “PD-1/PD-L1 inhibitors” (Gilead Sciences, Inc., priority 2017, dated 2026).

Key:
PD-1/PD-L1 = PD-1/PD-L1 (Homo sapiens, UniProt Q9NZQ7); assay: PD-1/PD-L1 biochemical protein-protein interaction assay (ALPHA); type: binding; conditions: 0.3 nM His tagged PD-L1, 2.5 nM biotinylated Fc-PD-1, 60 minutes at 25° C., read-out: IC50 PD-L1-PD-1 Alpha IC50-mono PD-L1-fcP-D1
Procedure, shortened: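 ALPHA bead proximity assay of extracellular domains: 0.3 nM His-PD-L1 with 2.5 nM biotinylated Fc-PD-1 in 25 mM Hepes pH 7.4, 150 mM NaCl, 3.4 mM EDTA, 0.005% Tween 20, 0.01% BSA, 60 min at 25 °C. Anti-His acceptor and streptavidin donor beads added; IC50 from four-parameter fit of signal loss.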

PD-1/PD-L1 interaction = target: T1, PD-1/PD-L1 interaction (Homo sapiens, UniProt Q9NZQ7); assay: PD-1/PD-L1 NFAT reporter co-culture assay; type: cell-based; conditions: Jurkat PD-1 NFAT-luciferase cells co-cultured with aAPC-PD-L1 CHO cells, 6 hrs at 37° C.; read-out: EC50 NFAT Luciferase
T1 construct: expressed in transfected cells; host or cells: CHO cells (aAPC-PD-L1) co-cultured with Jurkat cells overexpressing PD-1 and an NFAT-luciferase reporter
T1 sequence (Q9NZQ7 19-290): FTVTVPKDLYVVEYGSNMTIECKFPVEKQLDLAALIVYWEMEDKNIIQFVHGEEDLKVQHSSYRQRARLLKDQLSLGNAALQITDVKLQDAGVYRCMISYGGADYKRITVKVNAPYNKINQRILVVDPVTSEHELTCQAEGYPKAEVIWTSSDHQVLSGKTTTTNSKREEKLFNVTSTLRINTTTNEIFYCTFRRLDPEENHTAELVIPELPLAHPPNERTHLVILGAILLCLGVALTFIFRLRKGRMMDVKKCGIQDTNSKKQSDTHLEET
Procedure, shortened: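 Jurkat cells overexpressing PD-1 with NFAT-luciferase mixed with compounds and plated onto CHO aAPCs expressing anti-CD3 and PD-L1, RPMI with 2% FBS. Co-culture 6 h at 37 °C; luminescence read with ONE-Glo. EC50 from four-parameter fit.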

PD-L1 = target: T2, PD-L1 (Homo sapiens, UniProt Q9NZQ7); assay: PD-L1/PD-L1 dimerization biochemical protein-protein interaction assay (ALPHA); type: binding; conditions: compound-induced PD-L1 dimerization, head prints '1 nM' (0.5 nM His-tagged PD-L1 and 0.5 nM FLAG-tagged PD-L1), read-out: AC50 PDL1 Dimer Alpha 1 nM
T2 construct: determine if they can specifically dimerize the extracellular domains of PD-L1
T2 sequence (Q9NZQ7 19-238 limits assumed): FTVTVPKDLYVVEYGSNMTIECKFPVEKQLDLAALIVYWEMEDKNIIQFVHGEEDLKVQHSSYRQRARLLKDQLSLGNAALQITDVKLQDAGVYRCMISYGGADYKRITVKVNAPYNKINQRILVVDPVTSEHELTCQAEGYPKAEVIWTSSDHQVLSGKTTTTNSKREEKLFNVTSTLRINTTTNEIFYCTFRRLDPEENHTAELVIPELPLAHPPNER
T2 sequence (Q9NZQ7 19-238 limits assumed): as above
Procedure: PD-L1/PD-L1 Dimerization Biochemical Protein-Protein Interaction Assay:
Compounds were tested in biochemical protein-protein interaction assays to determine if they can specifically dimerize the extracellular domains of PD-L1. Dimerization of the proteins (His-tagged PD-L1 and FLAG-tagged PD-L1) is measured using a bead based Amplified Luminescent Proximity Homogeneous Assay (ALPHA) platform. […] Assays are performed in 25 mM Hepes (pH 7.4), 150 mM NaCl, 3.4 mM EDTA, 0.005% Tween 20, and 0.01% BSA. Final protein concentration in the assays were 0.5 nM (His tagged PD-L) and 0.5 nM (FLAG tagged PD-L1). After an assay reaction time of 2 hours at 25° C., 20 μg/mL (final assay concentration) ALPHA assay acceptor beads (anti-His coated) were added and incubated for 60 minutes at 25° C. Binding was measured following a final 60 minute incubation with 40 μg/mL (final assay concentration) ALPHA assay donor beads (anti-FLAG coated). AC50 values were calculated from the fit of the dose-response curves to a four-parameter equation (Table 3).

Chain of PD-1/PD-L1 (Q9NZQ7 19-238 limits assumed): as above

## C[C@](CO)(NCc1cc(Br)c(OCc2cccc(-c3cccc(-c4ccc5c(c4)C[C@@H](N)C5)c3Cl)c2Cl)nc1OCc1cncc(C#N)c1)C(=O)O [Example 553]
PD-1/PD-L1
  IC50: 0.101 nM
PD-1/PD-L1 interaction
  EC50: 70 nM
PD-L1
  AC50: 17.7 nM

## Cc1c(COc2cc(OCc3cncc(C#N)c3)c(CNC[C@@H](O)CC(=O)O)cc2Cl)cccc1-c1cccc(-c2ccc(CNCc3cncc(C#N)c3)cc2)c1C [Example 326, (S)-4-((5-chloro-2-((5-cyanopyridin-3-yl)methoxy)-4-((4″-((((5-cyanopyridin-3-yl)methyl)amino)methyl)-2,2′-dimethyl-[1,1′:3′,1″-terphenyl]-3-yl)methoxy)benzyl)amino)-3-hydroxybutanoic acid]
PD-1/PD-L1
  IC50: 1.15 nM
PD-1/PD-L1 interaction
  EC50: 439 nM
PD-L1
  AC50: 1210 nM

## Cc1c(COc2cc(OCc3cncc(C#N)c3)c(CN3CC[C@@H](O)C3)cc2Cl)cccc1-c1cccc(-c2ccc(CNCCCCC(=O)O)cc2)c1C [Example 333, (R)-5-(((3″-((2-chloro-5-((5-cyanopyridin-3-yl)methoxy)-4-((3-hydroxypyrrolidin-1-yl)methyl)phenoxy)methyl)-2′,2″-dimethyl-[1,1′:3′,1″-terphenyl]-4-yl)methyl)amino)pentanoic acid]
PD-1/PD-L1
  IC50: 0.289 nM
PD-1/PD-L1 interaction
  EC50: 481 nM
PD-L1
  AC50: 203 nM

## Cc1c(COc2cc(OCc3cncc(C#N)c3)c(CNC(C)(CO)C(=O)O)cc2Cl)cccc1-c1cccc(-c2ccc(CN3CCC4(CC3)CNC4=O)cc2)c1C (stereo not shown) [Example 443]
PD-1/PD-L1
  IC50: 0.064 nM
PD-1/PD-L1 interaction
  EC50: 276 nM
PD-L1
  AC50: 154 nM

## Cc1c(COc2cc(OCc3cncc(C#N)c3)c(CNC(C)(CO)C(=O)O)cc2Cl)cccc1-c1cccc(-c2ccc(CN3CC4(CNC4)C3)cc2)c1C (stereo not shown) [Example 451]
PD-1/PD-L1
  IC50: 0.104 nM
PD-1/PD-L1 interaction
  EC50: 472 nM
PD-L1
  AC50: 105 nM

## Cc1c(COc2nc(OC[C@@H]3CCC(=O)N3)c(CNC[C@@H](O)CC(=O)O)cc2Br)cccc1-c1cccc(COc2nc(OC[C@@H]3CCC(=O)N3)c(CNC[C@@H](O)CC(=O)O)cc2Br)c1C [Example 328, (3S,3′S)-4,4′-((((((2,2′-dimethyl-[1,1′-biphenyl]-3,3′-diyl)bis(methylene))bis(oxy))bis(5-bromo-2-(((S)-5-oxopyrrolidin-2-yl)methoxy)pyridine-6,3-diyl))bis(methylene))bis(azanediyl))bis(3-hydroxybutanoic acid)]
PD-1/PD-L1
  IC50: 0.142 nM
PD-1/PD-L1 interaction
  EC50: 146 nM
PD-L1
  AC50: 241 nM

## COc1nc(O[C@H]2CCc3c(-c4cccc(-c5ccc(C6=NCCN6)c(OC)n5)c4Cl)cccc32)c(Br)cc1CN[C@@](C)(CO)C(=O)O [Example 789]
PD-1/PD-L1
  IC50: 0.064 nM
PD-1/PD-L1 interaction
  EC50: 58 nM
PD-L1
  AC50: 17.9 nM

## COc1nc(C(=O)Nc2cccc(-c3cccc(-c4ccc(CNC[C@@H]5CCC(=O)N5)c(OC)n4)c3Cl)c2Cl)ccc1CNC[C@@H]1CCC(=O)N1 [Example 429]
PD-1/PD-L1
  IC50: 0.14 nM
PD-1/PD-L1 interaction
  EC50: 680 nM
PD-L1
  AC50: 240 nM

## Cc1c(COc2cc(OCc3cncc(C#N)c3)c(CNC[C@@H](O)CC(=O)O)cc2Cl)cccc1-c1cccc(-c2ccc3c(c2)CC(=O)N3CCN(C)C)c1C [Example 448]
PD-1/PD-L1
  IC50: 0.618 nM
PD-1/PD-L1 interaction
  EC50: 1010 nM
PD-L1
  AC50: 903 nM

## Cc1c(COc2cc(OCc3cncc(C#N)c3)c(CN[C@@](C)(CO)C(=O)O)cc2Cl)cccc1-c1cccc(-c2nnc(CCN3CC[C@@H](O)C3)o2)c1C [Example 453]
PD-1/PD-L1
  IC50: 0.111 nM
PD-1/PD-L1 interaction
  EC50: 895 nM
PD-L1
  AC50: 326 nM

## COc1nc(-c2cccc(-c3cccc4c3CC[C@@H]4Oc3nc(OC)c(CN4CCCC(O)(C(=O)O)C4)cc3Cl)c2Cl)ccc1CNC[C@@H]1CCC(=O)N1 (stereo partly shown) [Example 762]
PD-1/PD-L1
  IC50: 0.064 nM
PD-1/PD-L1 interaction
  EC50: 18 nM
PD-L1
  AC50: 13.6 nM

## Cc1c(COc2cc(OCc3cncc(C#N)c3)c(CNC[C@@H](O)CC(=O)O)cc2Cl)cccc1-c1cccc(-c2ccc3c(CNC[C@@H](O)CC(=O)O)cccc3c2)c1C [Example 293, (S)-4-(((6-(3′-((4-((((S)-3-carboxy-2-hydroxypropyl)amino)methyl)-2-chloro-5-((5-cyanopyridin-3-yl)methoxy)phenoxy)methyl)-2,2′-dimethyl-[1,1′-biphenyl]-3-yl)naphthalen-1-yl)methyl)amino)-3-hydroxybutanoic acid]
PD-1/PD-L1
  IC50: 0.226 nM
PD-1/PD-L1 interaction
  EC50: 73 nM
PD-L1
  AC50: 125 nM

## COc1nc(-c2cccc(-c3cccc4c3CC[C@@H]4Oc3nc(OC)c(CN4CC[C@H](C(=O)O)C4)cc3Cl)c2Cl)ccc1CN1CC2(CCC(=O)N2)C1 [Example 714]
PD-1/PD-L1
  IC50: 0.064 nM
PD-1/PD-L1 interaction
  EC50: 26 nM
PD-L1
  AC50: 66.3 nM

## COc1nc(-c2cccc(-c3cccc4c3CC[C@@H]4Oc3nc(OCc4cncc(C#N)c4)c(CNC(C)(C)C(=O)O)cc3Cl)c2Br)ccc1C1=NCCN1 [Example 701]
PD-1/PD-L1
  IC50: 0.818 nM
PD-1/PD-L1 interaction
  EC50: 3050 nM
PD-L1
  AC50: 332 nM

## Cc1c(COc2cc(OCc3cc(C#N)ccn3)c(CNC[C@@H](O)CC(=O)O)cc2Cl)cccc1-c1cccc(COc2cc(OCc3cc(C#N)ccn3)c(CNC[C@@H](O)CC(=O)O)cc2Cl)c1C [Example 225, (3S,3′S)-4,4′-((((((2,2′-dimethyl-[1,1′-biphenyl]-3,3′-diyl)bis(methylene))bis(oxy))bis(5-chloro-2-((4-cyanopyridin-2-yl)methoxy)-4,1-phenylene))bis(methylene))bis(azanediyl))bis(3-hydroxybutanoic acid)]
PD-1/PD-L1 interaction
  EC50: 145 nM
PD-L1
  AC50: 423 nM

## Cc1c(COc2cc(OCc3cncc(C#N)c3)c(CNC[C@@H](O)CC(=O)O)cc2Cl)cccc1-c1cccc(-c2ccc3oc(CNC[C@@H](O)CC(=O)O)cc3c2)c1C [Example 210, (S)-4-(((5-(3′-((4-((((S)-3-carboxy-2-hydroxypropyl)amino)methyl)-2-chloro-5-((5-cyanopyridin-3-yl)methoxy)phenoxy)methyl)-2,2′-dimethyl-[1,1′-biphenyl]-3-yl)benzofuran-2-yl)methyl)amino)-3-hydroxybutanoic acid]
PD-1/PD-L1 interaction
  EC50: 114 nM
PD-L1
  AC50: 83.1 nM

## Cc1c(OCc2cc(OCc3cncc(C#N)c3)c(CN[C@@](C)(CO)C(=O)O)cc2Cl)cccc1-c1cccc(-c2ccc(OCCN[C@@](C)(CO)C(=O)O)cc2)c1C [Example 388, (S)-2-((4-(((4″-(2-(((S)-2-carboxy-1-hydroxypropan-2-yl)amino)ethoxy)-2,2′-dimethyl-[1,1′:3′,1″-terphenyl]-3-yl)oxy)methyl)-5-chloro-2-((5-cyanopyridin-3-yl)methoxy)benzyl)amino)-3-hydroxy-2-methylpropanoic acid]
PD-1/PD-L1 interaction
  EC50: 225 nM
PD-L1
  AC50: ≥ 10000 nM

## COc1nc(OCc2cccc(-c3cccc(COc4nc(OC)c(CNC[C@H](O)CC(=O)O)cc4Br)c3Cl)c2Cl)c(Br)cc1CNC[C@H](O)CC(=O)O [Example 191, (3R,3′R)-4,4′-((((((2,2′-Dichloro-[1,1′-biphenyl]-3,3′-diyl)bis(methylene))bis(oxy))bis(5-bromo-2-methoxypyridine-6,3-diyl))bis(methylene))bis(azanediyl))bis(3-hydroxybutanoic acid)]
PD-1/PD-L1 interaction
  EC50: 60 nM
PD-L1
  AC50: ≥ 10000 nM

## N#Cc1cncc(COc2nc(OCc3cccc(-c4cccc(COc5nc(OCc6cncc(C#N)c6)c(CNC[C@H](O)CC(=O)O)cc5Br)c4Cl)c3Cl)c(Br)cc2CNC[C@H](O)CC(=O)O)c1 [Example 196, (3R,3′R)-4,4′-((((((2,2′-Dichloro-[1,1′-biphenyl]-3,3′-diyl)bis(methylene))bis(oxy))bis(5-bromo-2-((5-cyanopyridin-3-yl)methoxy)pyridine-6,3-diyl))bis(methylene))bis(azanediyl))bis(3-hydroxybutanoic acid)]
PD-1/PD-L1 interaction
  EC50: 151 nM
PD-L1
  AC50: 223 nM
